Assay results from US20110045101A1, “FUNGICIDAL SUBSTITUTED AZOLES” (E.I. Du Pont De Nemours and Company, priority 2009, published 2011).
Marks after values point to notes of the source that are not given here.

Experiments:
Format in all cases: in vivo
Details in all cases: 100 = 100% disease control
[1] = test system: Alternaria solani; experiment: Test D: tomato early blight, sprayed the day before inoculation, visual disease rating
Summary of the method: (§1)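 200 ppm run-off spray (500 g/ha equivalent); * = 40 ppm. Vehicle: acetone/water 50/50, 250 ppm Trem® 014.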

[2] = test system: Septoria nodorum; experiment: Test F: wheat glume blotch on wheat seedlings, sprayed the day before inoculation, visual disease rating
Summary of the method: as §1

[3] = test system: Erysiphe graminis f. sp. tritici; experiment: Test J: wheat powdery mildew on wheat seedlings, sprayed the day before inoculation, visual disease rating
Summary of the method: as §1

[4] = test system: Puccinia recondita f. sp. tritici; experiment: Test I: wheat leaf rust on wheat seedlings, sprayed the day before inoculation, visual disease rating
Summary of the method: as §1

[5] = test system: Botrytis cinerea; experiment: Test C: tomato Botrytis on tomato seedlings, sprayed the day before inoculation, visual disease rating
Summary of the method: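 Tomato seedlings were sprayed until run-off with test suspensions in acetone/water (50/50) carrying 250 ppm polyhydric alcohol ester surfactant. Standard dose was 200 ppm, with 40 ppm for marked entries.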

[6] = test system: Septoria tritici; experiment: Test G: wheat leaf blotch on wheat seedlings, sprayed the day before inoculation, visual disease rating
Summary of the method: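 Wheat seedlings were sprayed with compound suspensions, 200 ppm unless starred (40 ppm). After next-day spore inoculation, plants spent 48 h saturated at 24° C, then 19 days at 20° C, when disease was rated visually.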

[7] = 200 ppm, 0 = no control relative to controls
[8] = 40 ppm (marked *), 0 = no control

SMILES	Test D disease control rating ([1]; 200 ppm, 0 = no control) [%]	Test F disease control rating ([2]; 200 ppm, 0 = no control) [%]	Test J disease control rating ([3]; 200 ppm, 0 = no control) [%]	Test I disease control rating ([4]; 200 ppm, 0 = no control) [%]	Test C disease control rating ([5]; 200 ppm, 0 = no control) [%]	Test G disease control rating ([6]; 200 ppm, 0 = no control) [%]	Test D disease control rating [1, 7] [%]	Test F disease control rating [2, 7] [%]	Test J disease control rating [3, 7] [%]	Test I disease control rating [4, 7] [%]	Test C disease control rating [5, 7] [%]	Test G disease control rating [6, 7] [%]	other results
Cc1ccc(-n2c(C)nc(Cl)c2-c2c(F)ccc(F)c2F)cc1 [compound 155]	100	87	100	99	99	95							
Cc1nc(Cl)c(-c2c(F)ccc(Cl)c2F)n1-c1ccc(Cl)cc1 [compound 127]							100	98	100	100	99	95	
CC(C)c1nc(Cl)c(-c2c(F)cccc2F)n1-c1ccc(Cl)cc1 [compound 116]													Test D disease control rating ([1]; 40 ppm (marked *)): 0* %; Test F disease control rating ([2]; 40 ppm (marked *)): 0* %; Test J disease control rating ([3]; 40 ppm (marked *)): 0* %; Test I disease control rating ([4]; 40 ppm (marked *)): 0* %; Test C disease control rating ([5]; 40 ppm (marked *)): 0* %; Test G disease control rating ([6]; 40 ppm (marked *)): 0* %
Fc1ccc(-n2c(Cl)nc(Cl)c2-c2c(F)cccc2Cl)cc1 [compound 228]	99	0	99	94	96	98							
Cc1nc(Cl)c(-c2c(F)ccc(F)c2F)n1-c1ccc(F)cc1 [compound 145]							100	100	100	100	99	100	
COc1cc(F)c(-c2c(Cl)ncn2-c2cccc(F)c2)c(F)c1 [Compound 246, 4-chloro-5-(2,6-difluoro-4-methoxyphenyl)-1-(3-fluorophenyl)-1H-imidazole]													pest or weed control at 200 ppm ([1]; Alternaria solani, 168 h, 200 ppm, 0 = no control): 100%; pest or weed control at 200 ppm ([2]; Parastagonospora nodorum, 264 h, 200 ppm, 0 = no control): 95%; pest or weed control at 200 ppm ([3]; Blumeria graminis, 168 h, 200 ppm, 0 = no control): 99%; pest or weed control at 200 ppm ([4]; Puccinia recondita, 168 h, 200 ppm, 0 = no control): 100%; pest or weed control at 200 ppm ([5]; Botrytis cinerea, 120 h, 200 ppm, 0 = no control): 100%; pest or weed control at 200 ppm ([6]; Zymoseptoria tritici, 504 h, 200 ppm, 0 = no control): 93%
Fc1ccc(-n2cnc(Cl)c2-c2c(F)ccc(F)c2F)cc1 [compound 121]							100	0	97	89	99	85	
COc1ccc(-c2c(Cl)ncn2-c2ccc(Cl)cc2)c(F)c1 [compound 106]							99	64	95	99	100	93	
Cc1nc(Br)n(-c2c(F)cc(F)cc2F)c1-c1ccc(Cl)cc1 [compound 445]												95	Test D disease control rating [1, 8]: 100* %; Test F disease control rating [2, 8]: 92* %; Test J disease control rating [3, 8]: 98* %; Test I disease control rating [4, 8]: 97* %; Test C disease control rating [5, 8]: 97* %
Cc1nc(Cl)c(-c2c(F)cccc2F)n1Cc1ccccc1 [compound 118]							100	60	100	99	99	94	
Fc1cc(-n2c(Cl)nc(Cl)c2-c2c(F)cccc2Cl)ccc1Cl [compound 230]	97	0	99	94	99	99							
Cc1nc(Cl)c(-c2c(F)cccc2F)n1-c1ccc(F)cc1 [compound 83]							100	99	100	100	97	98	
Fc1cccc(F)c1-n1c(Cl)nc(Cl)c1-c1ccc(Cl)cc1 [compound 150]	100	60	100	97	99	98							
Fc1cc(-n2c(Cl)nc(Cl)c2-c2cccnc2Cl)ccc1Cl [compound 458]							16	0	89	95	96	92	
Cc1nc(Cl)c(-c2c(F)cccc2Cl)n1-c1ccc(F)cc1 [compound 189]	100	51	99	100	98	97							
Fc1cccc(F)c1-c1c(Cl)nc(Br)n1Cc1cccc(Cl)c1 [compound 101]							0	0	99	100	88	97	
Cc1nc(Cl)c(-c2c(F)cccc2F)n1-c1cc(F)cc(F)c1 [compound 73]							100	60	100	100	100	87	
COc1cc(F)c(-c2c(Cl)nc(Br)n2-c2ccc(Cl)cc2)c(Cl)c1 [compound 171]	100	100	99	98	99	98							
COc1cc(F)c(-c2c(Br)nc(C)n2-c2ccc(Cl)cc2)c(F)c1C [compound 59]													Test D disease control rating ([1]; 40 ppm (marked *)): 100* %; Test F disease control rating ([2]; 40 ppm (marked *)): 82* %; Test J disease control rating ([3]; 40 ppm (marked *)): 97* %; Test I disease control rating ([4]; 40 ppm (marked *)): 86* %; Test C disease control rating ([5]; 40 ppm (marked *)): 93* %; Test G disease control rating ([6]; 40 ppm (marked *)): 97* %
Cc1ccc(F)c(-c2c(Cl)nc(C)n2-c2ccc(Cl)cc2)c1F [compound 107]							100	100	100	100	96	96	
Cc1nn(C)c(-c2c(Cl)cccc2Cl)c1-c1cccc(F)c1 [compound 88]							0	0	99	68	75	0	
Cc1ncn(-c2c(F)cc(F)cc2F)c1-c1ccc(Cl)cc1 [compound 447]							80	0	81	0	94	30	
Cc1ccc(-n2cnc(Cl)c2-c2c(F)ccc(F)c2F)cc1 [compound 123]							99	0	94	90	99	48	
CN(C)c1ncn(Cc2ccc(Cl)cc2)c1-c1c(F)cccc1F [compound 99]							0	0	0	91	0	25	
Fc1cc(F)c(-n2c(Cl)nc(Cl)c2-c2ccc(Cl)cc2)c(F)c1 [compound 204]													Test D disease control rating [1, 8]: 91* %; Test F disease control rating [2, 8]: 0* %; Test J disease control rating [3, 8]: 26* %; Test I disease control rating [4, 8]: 18* %; Test C disease control rating [5, 8]: 90* %; Test G disease control rating [6, 8]: 90* %
Fc1ccc(SCCl)c(F)c1-c1c(Cl)ncn1-c1ccc(Cl)cc1 [compound 232]	0	0	0	9	0	95							
Cc1ccc(-n2c(Cl)nc(Cl)c2-c2c(F)ccc(F)c2Cl)cc1 [compound 198]	99	0	95	100	98	90							
COc1ccc(F)c(-c2c(Cl)nc(Br)n2-c2cccc(F)c2)c1F [compound 278]	100	100	100	100	99	95							
